The record followed here is US20080009435A1, “Synthetic methods for aplidine and new antitumoral derivatives, methods of making and using them” (Pharma Mar, S.A., a Spain corporation, priority 2000, published 2008).

Read-outs that look alike come from different tables or passages of the source. *1 amine or outer side, *2 acyl side, *3 side chain or, on linkers, in order; H or OH if unused. Where a SMILES comes first, the peptide text is derived from it. Bridges are numbered along the chain shown (N, C = ends). [ ]: non-standard residue; d: D form. The star is where a group is joined. ξ: configuration not given here. X1 = CC[C@H](C)[C@@H](N[*:1])[C@@H](O)CC(=O)O[C@H](C(=O)[C@H](C)C(=O)[*:2])C(C)C; X2 = CC[C@H](C)[C@@H](N[*:1])[C@@H](O)CC(=O)[*:2]; NMeY = CN[C@@H](Cc1ccc(O)cc1)C(=O)O; dNMeL = CN[C@H](CC(C)C)C(=O)O; Hiv = CC(C)[C@H](O)C(=O)O; Isobutyryl = CC(C)C(=O)*; Lac = C[C@H](O)C(=O)O; CO = O=C([*:1])[*:2]; X5 = S=C(Nc1ccccc1)*; ξP = O=C(O)C1CCCN1; NHBu = CCCCN*

Series [1] relates to HT-29 human colon carcinoma. The series is described as follows: Cytotoxicity IC50 (after Berjeron et al).
Description: (§1) Methodology: after Berjeron et al, Biochem and Bioph Res. Comm., 1984, 121, 3, 848-854.
(§2) P388=Murine lymphoma. A549=human lung carcinoma. HT-29=human colon carcinoma. MEL-28=human melanoma.
(§3) A549=human lung carcinoma. HT-29=human colon carcinoma. MEL-28=human melanoma.
For series [2], the system named is A549 human lung carcinoma. The series is described as follows: Cytotoxicity IC50 (after Berjeron et al).
Description: as §1, §2, §3
Setting [3] is: Homo sapiens, HT-29, read-out: Cytotoxicity of aplidine derivatives IC50 (Molar) HT29.
Setting [4] is: Homo sapiens, A549, read-out: Cytotoxicity of aplidine derivatives IC50 (Molar) A549.
[5] abbreviates: read-out: Cytotoxicity of aplidine derivatives IC50 (Molar) HT29, HT29.
Setting [6] is: read-out: Cytotoxicity of aplidine derivatives IC50 (Molar) A549, A549.

Regarding `CC[C@H](C)[C@H]1NC(=O)[C@@H](NC(=O)[C@@H](CC(C)C)N(C)C(=O)[C@@H]2CCCN2C(=O)C(C)C)[C@@H](C)OC(=O)[C@H](Cc2ccc(OC)cc2)N(C)C(=O)[C@@H]2CCCN2C(=O)[C@H](CC(C)C)NC(=O)[C@H](C(C)C)OC(=O)C[C@@H]1O` [9ISHPL1, [Hiv]^3-[Isobutyryl]^9-aplidine] (Isobutyryl-P[dNMeL]T[X2][Hiv]LP[NMeY](Me); ester 3-C), the IC50 in series [1] (setting [3]) and in series [2] (setting [4]) was 0.474 nM in each case.

As to `CCCCNC(=O)N(C)[C@H](CC(C)C)C(=O)N[C@@H]1C(=O)N[C@H]([C@@H](C)CC)[C@@H](O)CC(=O)O[C@@H](C(C)C)C(=O)[C@H](C)C(=O)N[C@@H](CC(C)C)C(=O)N2CCC[C@H]2C(=O)N(C)[C@@H](Cc2ccc(OC)cc2)C(=O)O[C@@H]1C` [8BUSAPL1, [Butylurea]^8-didemnin A] ({NHBu-CO}-[dNMeL]T[X1]LP[NMeY](Me); ester 2-C), the 50% inhibitory concentration (IC50) in series [1] (setting [3]) and in series [2] (setting [4]) was 0.0959 nM each time.

For `CC[C@H](C)[C@H]1NC(=O)[C@@H](NC(=O)[C@@H](CC(C)C)N(C)C(=O)C2CCCN2C(=O)[C@H](C)O)[C@@H](C)OC(=O)[C@H](Cc2ccc(OC)cc2)N(C)C(=O)[C@@H]2CCCN2C(=O)[C@H](CC(C)C)NC(=O)[C@H](C(C)C)NC(=O)C[C@@H]1O` (stereo partly drawn) [9LSVPL1(L), [Val]^3-[L-Lac]^9-aplidine] (H-[Lac][ξP][dNMeL]T[X2]VLP[NMeY](Me); ester 4-C), the half-inhibitory concentration (IC50) in series [1] (setting [3]) and in series [2] (setting [4]) was 0.948 nM each time.

As for `CCCCNC(=S)N(C)[C@H](CC(C)C)C(=O)N[C@@H]1C(=O)N[C@H]([C@@H](C)CC)[C@@H](O)CC(=O)O[C@@H](C(C)C)C(=O)[C@H](C)C(=O)N[C@@H](CC(C)C)C(=O)N2CCC[C@H]2C(=O)N(C)[C@@H](Cc2ccc(OC)cc2)C(=O)O[C@@H]1C` [8BTSAPL1, [Butylthiourea]^8-didemnin A], the IC50 in series [1] (setting [3]) and in series [2] (setting [4]) was 0.945 nM each time.

As to [Hiv]^3-[Z-Ala]^9-aplidine [9ZASHPL2], the IC50 in series [1] (setting [5]) and in series [2] (setting [6]) was 4.21 nM throughout.

On to [coumarin]^8-didemnin A [8CSAPL1], for which the IC50 in series [1] (setting [5]) and in series [2] (setting [6]) was 0.941 nM in each case.

On to `CC[C@H](C)[C@H]1NC(=O)[C@@H](NC(=O)[C@@H](CC(C)C)N(C)C(=O)[C@@H]2CCCN2C(=O)C(C)C)[C@@H](C)OC(=O)[C@H](Cc2ccc(OC)cc2)N(C)C(=O)[C@@H]2CCCN2C(=O)[C@H](CC(C)C)NC(=O)[C@H](C(C)C)NC(=O)C[C@@H]1O` [9ISVPL1, [Val]^3-[Isobutyryl]^9-aplidine] (Isobutyryl-P[dNMeL]T[X2]VLP[NMeY](Me); ester 3-C), for which the IC50 in series [1] (setting [3]) and in series [2] (setting [4]) was 0.475 nM throughout.

As to `CC[C@H](C)[C@H]1NC(=O)[C@@H](NC(=O)[C@@H](CC(C)C)N(C)C(=S)Nc2ccccc2)[C@@H](C)OC(=O)[C@H](Cc2ccc(OC)cc2)N(C)C(=O)[C@@H]2CCCN2C(=O)[C@H](CC(C)C)NC(=O)[C@@H](C)C(=O)[C@H](C(C)C)OC(=O)C[C@@H]1O` [8PTSAPL1, [Pheylthiourea]^8-didemnin A] (X5-[dNMeL]T[X1]LP[NMeY](Me); ester 2-C), the IC50 in series [1] (setting [3]) and in series [2] (setting [4]) was 0.927 nM each time.

Consider `CC[C@H](C)[C@H]1NC(=O)[C@@H](NC(=O)[C@@H](CC(C)C)N2CC[C@]3(CCCN3C(=O)C(C)C)C2=O)[C@@H](C)OC(=O)[C@H](Cc2ccc(OC)cc2)N(C)C(=O)[C@@H]2CCCN2C(=O)[C@H](CC(C)C)NC(=O)[C@@H](C)C(=O)[C@H](C(C)C)OC(=O)C[C@@H]1O` [9SISAPL1, [(5R)-1-(isobutiryl)-7-[(R)-1-carboxy-3-methylbutyl]-6-oxo-1,7-diazaspiro[4,4]nonane]^7-9-Aplidine], for which the IC50 in series [1] (setting [3]) and in series [2] (setting [4]) was 89.1 nM throughout.
